In patent publication US5573999A, “β-substituted cinnamic acid derivative” (BASF Aktiengesellschaft, priority 1991, dated 1996):

Experiments:
[1] = system: mitochondrial respiration; assay: Inhibition of mitochondrial respiration (rate of reduction of cytochrome c in isolated mitochondria), yeast; assay type: biochemical, Saccharomyces cerevisiae; conditions: DMSO control
Description: In order to determine the effect of the compounds according to the invention on mitochondrial respiration it is first necessary to isolate the mitochondria from the organisms being investigated. For this, in the case of the yeast Saccharomyces cerevisiae, the cells in a 30 to 40% strength suspension of the yeast in an aqueous solution of 0.6M mannitol+0.01M tris[hydroxymethyl]-aminomethane+0.002M disodium ethylenediaminetetraacetate (pH 6.8) are disrupted in a glass bead mill, and the extract is fractionated by differential centrifugation at 1000× g and 12000× g. The mitochondria are in the pellet from the 12000× g centrifugation.
(§1) Used as control is a mixture with the equivalent amount of pure DMSO. The inhibition at the concentration of agent in each case is then calculated as follows [formula] where ΔE is the change in extinction, at is the change in time, [formula] is the reaction rate for the control and [formula] is the reaction rate for the sample x.
(§2) The inhibition was determined in each case at a test substance concentration of 1.8/10^-5mol/l .

[2] = system: mitochondrial respiration; assay: Inhibition of mitochondrial respiration (rate of reduction of cytochrome c in isolated mitochondria), house fly; assay type: biochemical, Musca domestica; conditions: DMSO control
Description: (§3) It is also possible similarly to isolate mitochondria from other organisms, e.g. from the phytopathogenic fungus Drechslera sorokiniana (synonym: Helminthosporium sativum), from the dermatophyte Trichophyton mentagrophytes, which is a human pathogen, and, for example, from the house fly (Musca domestica) as insect or from the spider mite Tetranychus urticae.
as §1, §2

[3] = system: wheat mildew (Erysiphe graminis var. tritici); assay: Activity against wheat mildew on wheat seedlings; assay type: in vivo; conditions: aqueous dispersion containing 250 ppm active ingredient, assessed after 7 days
Experimental: Leaves of pot-grown wheat seedlings of the Fruhgold variety were sprayed with an aqueous liquor which contained 80% of active ingredient and 20% of emulsifier in dry matter and, 24 hours after the sprayed-on layer had dried, were dusted with spores of wheat mildew (Erysiphe graminis var. tritici). The test plants were then placed in a greenhouse at from 20° to 22° C. and from 75 to 80% relative humidity. The extent of mildew spread was assessed after 7 days.

[4] = system: mitochondrial respiration; assay: Inhibition of mitochondrial respiration (rate of reduction of cytochrome c in isolated mitochondria), phytopathogenic fungus; assay type: biochemical, Drechslera sorokiniana; conditions: DMSO control
Description: as §3, §1, §2

Pyricularia oryzae = assay type: in vivo; conditions: aqueous dispersion containing 250 ppm active ingredient; rice seedlings, protective, assessed after 6 days
Plasmopara viticola = assay: Activity against Plasmopara viticola on potted vines; assay type: in vivo; conditions: aqueous dispersion containing 250 ppm active ingredient, infected 8 days after spraying
Experimental: Leaves of potted vines of the Muller Thurgau variety were sprayed with an aqueous liquor which contained 80% of active ingredient and 20% of emulsifier in dry matter. To assess the duration of action of the active ingredient, after the sprayed-on layer had dried the plants were placed in a greenhouse for 8 days. The leaves were then infected with a suspension of Plasmopara viticola zoospores. The vines were then placed first in a chamber saturated with water vapor at 24° C. for 48 hours and then in a greenhouse at from 20° to 30° C. for 5 days. After this, to speed up sporangiophore discharge, the plants were again placed in the humidity chamber for 16 hours. The extent of fungus attack was then assessed on the undersides of the leaves.

Structure (SMILES) | % inhibition of respiration at 1.8 × 10^-5 mol/l test substance, Saccharomyces cerevisiae [1] | % inhibition of respiration at 1.8 × 10^-5 mol/l test substance, Musca domestica [2] | fungal attack, wheat mildew [3] | % inhibition of respiration at 1.8 × 10^-5 mol/l test substance, Drechslera sorokiniana [4] | fungal attack, Pyricularia oryzae (Pyricularia oryzae) | fungal attack, Plasmopara viticola (Plasmopara viticola)
COC(=O)/C=C(/OC)c1ccccc1/C=C/c1ccoc1 [Compound 1a.292] | 87% | 61% | 15% | 79% | – | –
COC(=O)/C=C(/OC)c1ccccc1/C=C/c1coc(-c2ccc(Cl)cc2)n1 [Compound 1a.302] | 97% | 96% | – | – | 15% | –
COC(=O)/C=C(/OC)c1ccccc1CON=C(C)c1ccc(Cl)cc1 [Compound 1a.356, methyl2-[1-(4-chlorophenyl)ethylideneaminoxymethyl]-(E)-β-methoxycinnamate] | – | – | 15% | – | 15% | 10%
O=C(C=C(c1ccccc1)c1ccccc1)N1CCOCC1 [A, morpholide of β-phenylcinnamic acid, reference compound] | 2% | 5% | 45% | 0% | 60% | 35%
COC(=O)/C=C(/OC)c1ccccc1COc1cccc(C=NOCc2ccccc2Cl)c1 [Compound 1a.64] | 94% | 93% | – | 98% | – | –
COC(=O)/C=C(/OC)c1ccccc1/C=C/c1ccc(Oc2ccccc2)cc1 [Compound 1a.273] | 95% | 95% | – | 96% | – | –
COC(=O)/C=C(/OC)c1ccccc1COc1nc(-c2ccccc2)cs1 [Compound 1a.181, methyl (E)-β-methoxy-2-(4-phenyl-2-thiazolyloxymethyl)cinnamate] | 99% | – | – | – | 15% | –
COC(=O)/C=C(/OC)c1ccccc1COc1ccc(C(C)=NOCC(C)C)cc1C [Compound 1a.60] | 97% | 93% | 15% | 99% | – | –
COC(=O)/C=C(/OC)c1ccccc1/C=C/c1csc(-c2ccc(Cl)cc2)n1 [Compound 1a.314] | 99% | – | – | – | 15% | –
COC(=O)/C=C(/OC)c1ccccc1/C=C\c1ccccc1C [Compound 1a.248] | 95% | – | 15% | – | 15% | –
CO/N=C(\C)c1ccc(OCc2ccccc2/C(=C\C(=O)OC)OC)c(C)c1 [Compound 1a.72, methyl (E)-β-methoxy-2-[2-methyl-4-(1-methoximinoethyl)phenoxymethyl]cinnamate] | 98% | 94% | 15% | 100% | 15% | 10%
COC(=O)/C=C(/OC)c1ccccc1/C=C\c1ccc(-c2ccccc2)cc1 [Compound 1a.269, methyl 2-[2-(4-phenylphenyl)-(Z)-ethenyl]-(E)-β-methoxycinnamate] | 96% | 76% | – | 81% | – | –
COC(=O)/C=C(/OC)c1ccccc1/C=C/c1ccccc1[N+](=O)[O-] [Compound 1a.238] | 99% | 87% | – | 74% | – | 10%
